For test [1], the system named is HaCaT cells. The test is described as follows: MCB test on HaCaT: intracellular GSH level after UV daylight (UV-DL) exposure. To be noted: for activity at 30 µM / inhibition at 30 µM / activity at 100 µM / inhibition at 100 µM: Homo sapiens, t=6 hours after exposure; for activity at 30 µM / activity at 100 µM: GSH-monochlorobimane fluorescence, HaCaT pretreated and exposed to UV-DL, read-out: % fluo; for inhibition at 30 µM / inhibition at 100 µM: against UV-DL-induced depletion of GSH, read-out: % protection; for inhibition at 30 µM / inhibition at 100 µM / protection against the UV-DL-induced depletion of GSH: HaCaT. The test is classed as cell-based, human. How it is done:
The study consisted in evaluating at the cellular level the protective effect of the reference molecule, lipoic acid, and also of lipoic acid derivatives according to the invention, with respect to the UV-DL-induced depletion of intracellular GSH.
To do this, HaCaT cells were exposed to UV daylight (UV-DL). The level of intracellular GSH was then measured, thus allowing evaluation of the possible protection afforded by the addition to the culture medium of the lipoic acid derivatives according to the invention.
UV daylight corresponds to the radiation of non-zenithal sunlight and to an average spectral illumination: it […] the radiation received by the skin of an individual in the course of a day and not solely to that corresponding to exposure to zenithal sunlight. Devices for reproducing this radiation are described in FR 2,863,356. The evaluation technique uses a fluorescent probe, monochlorobimane (MCB). […] The specificity of MCB towards GSH in our keratinocyte model (HaCaT line) was confirmed previously. Pretreatment of cells with the reference molecule, lipoic acid, for 24 hours at 1 mM affords approximately 100% protection against the UV-DL-induced depletion of GSH (see FIG. 1 showing the evaluation of the protective effect of lipoic acid at 1 mM in the MCB test on HaCaT: the measurement of the level of intracellular GSH is performed on keratinocytes that are or are not pretreated with lipoic acid at 1 mM and exposed to UV-DL at t=0, t=6 hours and t=24 hours after the exposure to UV-DL); this protection is about 83% at 500 μM and about 10% at 100 μM.
Evaluation of the protective effect of compound 1 at 100 μM and at 30 μM of compounds 9, 10, 2, 13, 14, 12, 24, 26 and 27 is performed in the MCB test on HaCaT: evaluation of the protective effect of the silyl dithiolane compounds of WO 2008/058 999 at 100 μM is also performed in the MCB test on HaCaT: the compound 5-(1,2-dithiolan-3-yl)-N-[3-(trimethylsilyl)propyl]pentanamide and the compound (trimethylsilyl)methyl 5-(1,2-dithiolan-3-yl)pentanoate. Measurement of the intracellular level of GSH is performed on keratinocytes that have or have not been pretreated with the active agents and exposed to UV-DL, t=6 hours after the exposure to UV-DL). The results are given in the graphs in FIGS. 2 and 3.

Test [2] concerns normal human fibroblasts (NHF). The test is described as follows: Comet test: UV-A-induced DNA damage in normal human fibroblasts. Type of test: cell-based. The following applies: 24 hours contact, UV-A = 30 min. The source says:
Solar UV is capable of giving rise to extensive oxidative damage in skin cells, and especially in DNA. The nucleic acids absorb the UV-B photons, thus inducing DNA damage directly. Although UV-A is not directly absorbed by DNA, it has a genotoxic action mediated by reactive oxygen species. The comet test makes it possible to quantify the UV-induced DNA damage (in this case UV-A): the breaking of strands and oxidative DNA lesions (alkali-labile sites cleaved under alkaline conditions) are detected. The principle of this test is based on the capacity of denatured and cleaved DNA fragments to migrate outside the cell nuclei, under the influence of an electric field, whereas undamaged DNA remains confined in the nucleus. The damaged DNA fragments form a trail behind the cell nucleus. The cells then take the appearance of “comets”. The “tail” of each comet is proportionately larger and stronger the greater the DNA damage incurred. (Alapetite C. et al., 1996, Int. J. Rad. Bio.; Klaude M, et al., 1996, Mut. Res.; Lehmann J. et al., 1998, Mut. Res.; Singh N P. et al., 1988, Exp. Cell Res.).
The study consisted in evaluating the photoprotective effect of two molecules with respect to UV-A-induced DNA damage. To do this, normal human fibroblasts (NHF) were placed in contact with the active agents for 24 hours. The cells were then detached, included in an agarose gel and then deposited on a microscope slide. Following the UV-A exposure (for 30 minutes), the cells were subjected to cell lysis (so as to keep intact only the genetic material), to a DNA-denaturing step and then to electrophoresis to make the damaged DNA migrate. The level of damaged DNA was measured using a fluorescence microscope combined with specialized image analysis software.

SMILES strings stand for the structures. Values joined by “and” are separate entries in the source; they are usually repeats but may differ in a detail not shown here. Identical values can stand only once.

As to `CC1(C(N)=O)CSSC1` [Compound 2, 4-methyl-1,2-dithiolane-4-carboxamide], in test [1], the activity at 30 µM was determined as 92% and the inhibition at 30 µM is 86%. For the same compound, in test [2] (10 μM), the “% of DNA damage” value was found to be 37.1%; the “% protection” value is 63% and 62.9%; the “Mean TM (DNA damage)” value is 2.73.

For the compound `C[Si](C)(C)COC(=O)CCCCC1CCSS1` (stereo not shown) [(trimethylsilyl)methyl 5-(1,2-dithiolan-3-yl)pentanoate, reference compound], in test [1], the activity at 100 µM amounted to 76% and the inhibition at 100 µM is 42%.

On to `COC(=O)C(CCSC)NC(=O)C1(C)CSSC1` (stereo not shown) [Compound 12, methyl 2-{[(4-methyl-1,2-dithiolan-4-yl)carbonyl]amino}-4-(methylsulfanyl)butanoate], for which, in test [1], the activity at 30 µM is 78% and the inhibition at 30 µM was 61%.

For `CC1(C(=O)NCCO)CSSC1` [Compound 14, N-(2-hydroxyethyl)-4-methyl-1,2-dithiolane-4-carboxamide], in test [1], the activity at 30 µM came out at 78% and the inhibition at 30 µM was 61%.

For `C[Si](C)(C)CCCNC(=O)CCCCC1CCSS1` (stereo not shown) [5-(1,2-dithiolan-3-yl)-N-[3-(trimethylsilyl)propyl]pentanamide, reference compound], in test [1], the activity at 100 µM was 75% and the inhibition at 100 µM turned out to be 41%.

As for `CCCCCCCNC(=O)C1(C)CSSC1` [Compound 10, N-heptyl-4-methyl-1,2-dithiolane-4-carboxamide], in test [1], the activity at 30 µM amounted to 99% and the inhibition at 30 µM was determined as 98%.

In the case of `CC1(C(=O)O)CSSC1` [Compound 1, 4-methyl-1,2-dithiolane-4-carboxylic acid], in test [1], the activity at 100 µM stood at 88% and the inhibition at 100 µM worked out at 74%. Further, in test [2] (1 μM), the “% of DNA damage” value amounted to 80.7%, the “% protection” value stood at 19.3% and the “Mean TM (DNA damage)” value worked out at 9.38. The “% protection” value in test [2] (1 μM, listed as compound 1) was found to be 20%. Besides, in test [2] (10 μM), the “% of DNA damage” value is recorded as 69.4%, the “% protection” value was 30.6% and the “Mean TM (DNA damage)” value stood at 8.06. Besides, the “% protection” value in test [2] (10 μM, listed as compound 1) is reported as 30%.

Regarding `CC1(C(N)=O)CSS(=O)(=O)C1` (stereo not shown) [Compound 27, 4-methyl-1,2-dithiolane-4-carboxamide 1,1-dioxide], in test [1], the activity at 30 µM was 100% and the inhibition at 30 µM was found to be 101%.

Turning to `CC1(C(=O)O)CSS(=O)(=O)C1` (stereo not shown) [Compound 24, 4-methyl-1,2-dithiolane-4-carboxylic acid 1,1-dioxide], in test [1], the activity at 30 µM worked out at 91% and the inhibition at 30 µM turned out to be 63%.

For `CC(=O)NCCSC(=O)C1(C)CSSC1` [Compound 13, S-[2-(acetylamino)ethyl]4-methyl-1,2-dithiolane-4-carbothioate], in test [1], the activity at 30 µM worked out at 71% and the inhibition at 30 µM came to 50%.

As to `O=C(O)CCCCC1CCSS1` (stereo not shown) [lipoic acid, 1,2-dithiacyclopentane-3-valeric acid, reference compound], the activity at 100 µM in test [1] is 63%. Also, the inhibition at 100 µM in test [1] stood at 13%. In addition, the figures for the “protection against the UV-DL-induced depletion of GSH” value in test [1] (pretreatment at 100 μM), in test [1] (pretreatment at 500 μM) and in test [1] (pretreatment for 24 hours at 1 mM) were “about 10%”, “about 83%” and “approximately 100%”, respectively.

Turning to `CC1(C(N)=O)CS[S+]([O-])C1` (stereo not shown) [Compound 26, 4-methyl-1,2-dithiolane-4-carboxamide 1-oxide], in test [1], the activity at 30 µM is 117% and the inhibition at 30 µM turned out to be 169%.

`CCCCCCCCOC(=O)C1(C)CSSC1` [Compound 9, octyl 4-methyl-1,2-dithiolane-4-carboxylate]: in test [1], the activity at 30 µM came out at 80% and the inhibition at 30 µM stood at 66%.

Source of the values: patent US8530511B2, “Administration of dithiolane compounds for photoprotecting the skin” (L'Oreal, priority 2008, dated 2013).
